Measured values published in US20260240852A1, “Use of Oral JAK Kinase Inhibitors to Treat Lichen Planus” (Mayo Foundation for Medical Education and Research, priority 2023, published 2026).
Where “and” joins values, the source holds several entries; their conditions need not be identical. Identical values can stand only once.

Legend:
Format in all cases: in vivo, human
[1] = test system: patients with biopsy-proven cutaneous LP; assay: Open-label, single-arm phase 2 trial of oral baricitinib in cutaneous lichen planus: clinical efficacy
Description: A clinical study was conducted in which 12 patients with biopsy-proven LP were trialed on oral baricitinib at a daily dose of 2 mg for 16 weeks. Other inclusionary criteria included having at least 4 lesions of LP at baseline. The mean age of participants was 63.6 years. The vast majority were female and identified as Caucasian. A quarter were under-represented minorities. The mean duration of disease for all patients was 2.2 years. Five of the 12 participants had hypertrophic LP, and 11 were refractory to prior therapy. All but one patient had previously trialed topical steroids. Almost half (41.7%) had failed oral or IM steroids.
The primary outcome of this study was PGA at week 16, with treatment response defined as greater than 50% improvement with a PGA grade of 0 to 3. Non-responsive was defined as PGA 4 and 5. Secondary endpoints included changes from baseline to week 16 in mCAILS, pruritus scores, Skindex-16, BSA, and total lesion count.
Trial Design. A single-arm, open-label, phase 2, […] trial was conducted at Mayo Clinic, Arizona (ClinicalTrials.gov identifier NCT05188521). The Mayo Clinic Institutional Review Board approved the study (IRB 21-003075), and all patients provided written informed consent. Twelve patients with biopsy-proven cutaneous LP were administered oral baricitinib 2 mg once daily for 16-weeks. The primary endpoint was an overall response by Physician Global Assessment (PGA) of skin at week 16, with treatment response defined as PGA 0 to 3 (with ≥50% score reduction). Secondary outcomes were changes in mCAILS, total body lesion count, affected BSA, pruritus numeric rating scale (NRS), pruritus verbal rating scale (VRS), pruritus visual analog scale (VAS), pain NRS, and Skindex-16. Patients were evaluated at baseline (week 0) and weeks 2, 4, 8, 12, and 16. […] Complete responders at week 16 were reassessed at week 20 and partial responders at week 16 were reassessed at week 32, after an off-therapy period of 4 weeks, respectively.
(§1) Assessments of treatment efficacy, adverse events (AEs), and QoL were completed at each study visit. All lesions were annotated, photographed, and scored using the mCAILS criteria. 16 All clinical assessments were performed by the principal investigator and co-investigators (ARM, MRP, SZ) with questionable lesions scored by 2 investigators. The revised National Cancer Institute Common Terminology Criteria for Adverse Events version 5.0 was used for AE reporting. Due to travel issues, one patient withdrew from the study after week 8. An intention-to-treat (ITT) analysis was used with the patient's last observation to impute week 16 data.
Eligibility Criteria. Patients aged ≥18 years with biopsy-proven cutaneous LP were eligible for the trial. Both treatment-naïve and treatment-refractory disease were included. Key exclusion criteria included predominantly non-cutaneous variants of LP, active infections, and other active inflammatory cutaneous conditions.
Statistical Analysis. Patient demographics, clinical characteristics, and outcomes were summarized as mean, standard deviation, median, interquartile range for continuous variables, and frequency and percentages for categorical variables. Primary and secondary outcome differences between baseline and week 16 were compared using Wilcoxon signed rank test for continuous variables and McNemar's test for binary variables. One patient withdrew from the study after week 8, and this patient's last observation (week 8) was used to impute week 16 data in the ITT analysis.
Exact binomial method was used to calculate the treatment response rate at week 16 and its corresponding 95% confidence interval. All analyses were conducted with R version 4.1.2 (R Foundation for Statistical Computing, Vienna, Austria). The cut-off for statistical significance was set as 0.05.

[2] = test system: patients with biopsy-proven cutaneous LP; assay: as above; conditions: dose escalation, after 12 weeks of 4 mg daily, five patients
[3] = Adverse event assessment in the baricitinib LP trial (CTCAE version 5.0)
Description: as §1

[4] = five dose-escalation patients at week 16 (after 2 mg daily), start of dose escalation
[5] = oral 2 mg once daily, baseline to week 16, ITT
[6] = oral 2 mg once daily, baseline to week 16, ITT, P 0.002
[7] = oral 2 mg once daily, baseline to week 16, ITT, P 0.003

CCS(=O)(=O)N1CC(CC#N)(n2cc(-c3ncnc4[nH]ccc34)cn2)C1 [baricitinib]
Patients with PGA grade 1 [1, 4]: 80.0% | Patients with PGA grade 4 [1, 4]: 20% | Mean total body lesion count ([1]; oral 2 mg daily, by week 16, 146 at baseline (first report)): 8 | Treatment response (PGA), patients ([1]; oral 2 mg daily, week 1): 37.5% | Treatment response (PGA), patients ([1]; oral 2 mg daily, week 12): 100% | Patients with a PGA grade of 0 or 1 (completely clear and almost clear) ([1]; oral 2 mg daily, week 16 (primary endpoint), all but one patient): 90.9% | BSA affected (%), Range, Difference [1, 5]: −9.8 to −0.1% | Pain NRS, Range, Difference [1, 5]: −8.0 to 0.0 | Pruritus NRS, Range, Difference [1, 5]: −8.0 to −0.0 | Pruritus VAS, Range, Difference [1, 5]: −7.7 to 1.5 | Skindex-16 emotional, Range, Difference [1, 5]: −34.0 to 0.0 | Skindex-16 functional, Range, Difference [1, 5]: −15.0 to 0.0 | Skindex-16 overall, Range, Difference [1, 5]: −58.0 to 0.0 | Skindex-16 symptom, Range, Difference [1, 5]: −19.0 to 0.0 | Total Body Lesion Count, Range, Difference [1, 5]: −570.0 to −4.0 | mCAILS, Range, Difference [1, 5]: −14.6 to −5.0 | BSA affected (%), Mean (SD), Difference [1, 6]: −3.9 (2.9) % | Total Body Lesion Count, Mean (SD), Difference [1, 6]: −134.8 (157.0) | mCAILS, Mean (SD), Difference [1, 6]: −10.6 (2.9) | Pruritus NRS, Mean (SD), Difference [1, 7]: −5.3 (2.6) | Pruritus VAS, Mean (SD), Difference [1, 7]: −5.0 (2.6) | Pain NRS, Mean (SD), Difference ([1]; oral 2 mg once daily, baseline to week 16, ITT, P 0.005): −5.6 (2.7) | Skindex-16 overall, Mean (SD), Difference ([1]; oral 2 mg once daily, baseline to week 16, ITT, P 0.008): −37.3(18.3) | Pain NRS4, patients achieving ([1]; oral 2 mg once daily, week 16): 66.7% | Pruritus NRS improvement >4 from baseline (NRS4), patients achieving ([1]; oral 2 mg once daily, week 16): 75.0% | PGA Non-responsive (n, %) ([1]; oral 2 mg once daily, week 16, ITT, 12 patients): 16.7% | PGA Responsive (n, %) ([1]; oral 2 mg once daily, week 16, ITT, 12 patients, response = PGA 0 to 3 with ≥50% score reduction): 83.3% | BSA affected (%), Mean (SD), Week 16 ([1]; oral 2 mg once daily, week 16, ITT, baseline 4.9 (3.7), P 0.002): 1.0% and 1.0 (2.5) % | Skindex-16 functional, Mean (SD), Week 16 ([1]; oral 2 mg once daily, week 16, ITT, baseline 11.6 (10.2), P 0.012): 4.5 (9.0) | mCAILS, Mean (SD), Week 16 ([1]; oral 2 mg once daily, week 16, ITT, baseline 12.3 (3.2), P 0.002): 1.7 (3.3) | Skindex-16 symptom, Mean (SD), Week 16 ([1]; oral 2 mg once daily, week 16, ITT, baseline 16.4 (6.0), P 0.005): 3.7 (7.0) | Skindex-16 emotional, Mean (SD), Week 16 ([1]; oral 2 mg once daily, week 16, ITT, baseline 29.9 (9.0), P 0.003): 9.0 (12.4) | Skindex-16 overall, Mean (SD), Week 16 ([1]; oral 2 mg once daily, week 16, ITT, baseline 59.0 (22.1), P 0.008): 16.9 (28.7) | Skindex-16 functional, Range, Week 16 ([1]; oral 2 mg once daily, week 16, ITT, baseline range 0.0-30.0): 0.0-30.0 | BSA affected (%), Range, Week 16 ([1]; oral 2 mg once daily, week 16, ITT, baseline range 0.1-12.0): 0.0-8.5% | Pruritus NRS, Range, Week 16 ([1]; oral 2 mg once daily, week 16, ITT, baseline range 1.0-10.0): 0.0-10.0 | Pruritus VAS, Range, Week 16 ([1]; oral 2 mg once daily, week 16, ITT, baseline range 2.7-8.8): 0.0-9.0 | Pain NRS, Range, Week 16 ([1]; oral 2 mg once daily, week 16, ITT, baseline range 4.0-10.0): 0.0-10.0 | Skindex-16 symptom, Range, Week 16 ([1]; oral 2 mg once daily, week 16, ITT, baseline range 4.0-24.0): 0.0-24.0 | Total Body Lesion Count, Range, Week 16 ([1]; oral 2 mg once daily, week 16, ITT, baseline range 4.0-600.0): 0.0-117.0 | mCAILS, Range, Week 16 ([1]; oral 2 mg once daily, week 16, ITT, baseline range 7.0-18.6): 0.0-8.9 | Skindex-16 emotional, Range, Week 16 ([1]; oral 2 mg once daily, week 16, ITT, baseline range 17.0-42.0): 0.0-42.0 | Skindex-16 overall, Range, Week 16 ([1]; oral 2 mg once daily, week 16, ITT, baseline range 35.0-96.0): 0.0-96.0 | Overall Skindex-16 score, mean decrease from baseline to week 16 ([1]; oral 2 mg once daily, SD 18.3, p=0.008): 37.3 | Treatment response (PGA), patients ([1]; week 20, after 4 weeks of being off-therapy): 100% | Patients almost clear (PGA grade 1) [2]: 20.0% | Patients completely clear of disease (PGA grade 0) [2]: 60.0% | Patients with slight improvement (PGA grade 4) [2]: 20.0% | Total adverse events ([3]; 12 patients, oral baricitinib): 12 | AEs leading to discontinuation ([3]; in vivo): No AEs led to the discontinuation | Serious adverse events ([3]; in vivo): Serious adverse events did not occur | Adverse events related / probably related to the study drug ([3]; low neutrophil count (neutropenia), mild, not deemed serious): one and A single AE of neutropenia | AEs that were mild ([3]; of 12 AEs): 58.3% | AEs that were moderate ([3]; of 12 AEs): 25.0% | Adverse events unrelated or unlikely to be related to baricitinib ([3]; of 12 AEs): 11 | Absolute neutrophil count of the drug-related AE ([3]; the one mild AE deemed probably related to the study drug): 7.8e+08 L⁻¹
